Measured values: ChEMBL document CHEMBL1201862, “PubChem BioAssay data set” (2004)
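Assay format: 96-well plates, 48-hour exposure. GI50: concentration for 50% inhibition of growth.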 Active and inactive are the calls of the source. Rule as the data show it: active = GI50 up to about 1.1 µM and inactive = higher.

Columns and labels:
Experiment in all cases: NCI anticancer screen, dose series, 48 h
[1] = test system: Malme-3M
[2] = test system: EKVX
[3] = test system: KM12
[4] = test system: MDA-MB-435
[5] = test system: LOX IMVI
[6] = test system: MDA-N
[7] = test system: HOP-62
[8] = test system: DLD-1
[9] = test system: HCT-116
[10] = test system: 786-0
[11] = test system: KM-20L2
[12] = test system: HT-29
[13] = test system: OVCAR-3
[14] = test system: HOP-92
[15] = test system: M14
[16] = test system: NCI-H23
[17] = test system: BT-549
[18] = test system: NCI/ADR-RES
[19] = test system: SK-OV-3
[20] = test system: SN12C
[21] = test system: M19-MEL
[22] = test system: OVCAR-4
[23] = test system: RXF 393
[24] = test system: A549
[25] = test system: SK-MEL-2
[26] = test system: SR
[27] = test system: NCI-H226
[28] = test system: OVCAR-5
[29] = test system: T47D
[30] = test system: SNB-19
[31] = test system: UO-31
[32] = test system: HOP-18
[33] = test system: A498
[34] = test system: SF-295
[35] = test system: TK-10
[36] = test system: LXFL 529
[37] = test system: UACC-257
[38] = test system: SNB-78
[39] = test system: Hs-578T
[40] = test system: SK-MEL-5
[41] = test system: SW-620
[42] = test system: NCI-H460
[43] = test system: MCF7
[44] = test system: HCT-15
[45] = test system: XF498
[46] = test system: HL-60
[47] = test system: UACC-62
[48] = test system: ACHN
[49] = test system: CCRF-CEM
[50] = test system: IGROV-1
[51] = test system: CAKI-1
[52] = test system: NCI-H522
[53] = test system: SF-268
[54] = test system: RPMI-8226
[55] = test system: OVCAR-8
[56] = test system: DMS-273
[57] = test system: SNB-75
[58] = test system: MOLT-4
[59] = test system: HCC 2998
[60] = test system: COLO 205
[61] = test system: U-251
[62] = test system: SF-539
[63] = test system: DU-145
[64] = test system: K562
[65] = test system: PC-3
[66] = test system: SK-MEL-28
[67] = test system: DMS-114
[68] = test system: RXF 631

Measured: GI50

COc1ccc2c(c1)c(=O)c1c(NCCCN(C)C)ccc3ncn2c31
active: [7] 0.783 µM | [9] 0.188 µM | [18] 0.832 µM | [23] 0.366 µM | [41] 1.01 µM | [43] 0.714 µM | [48] 0.659 µM | [52] 0.993 µM | [55] 0.495 µM | [56] 1.07 µM | [58] 0.215 µM
inactive: [1] 11.6 µM | [2] 13.8 µM | [3] 1.38 µM | [4] 6.05 µM | [5] 1.54 µM | [6] 5.37 µM | [8] 1.14 µM | [10] 1.68 µM | [11] 1.12 µM | [12] 1.13 µM | [13] 10.4 µM | [14] 4.13 µM | [15] 4.78 µM | [16] 5.87 µM | [17] 17.6 µM | [19] 8.38 µM | [20] 1.72 µM | [21] 9.08 µM | [22] 1.15 µM | [24] 1.19 µM | [25] 14.2 µM | [26] 2.19 µM | [27] 2.9 µM | [28] 12.3 µM | [29] 16.3 µM | [30] 3.95 µM | [31] 2.62 µM | [32] 11.2 µM | [33] 11.2 µM | [34] 1.47 µM | [35] 6.1 µM | [36] 3.41 µM | [37] 12.2 µM | [38] 7.48 µM | [39] 10.6 µM | [40] 7.67 µM | [42] 1.39 µM | [45] 5.35 µM | [46] 4.42 µM | [47] 11.4 µM | [49] 1.61 µM | [50] 3.5 µM | [51] 5.68 µM | [53] 1.31 µM | [54] 1.29 µM | [57] 6.3 µM | [59] 3.05 µM | [60] 2.8 µM | [61] 1.35 µM | [62] 3.93 µM | [63] 4.66 µM | [64] 2.92 µM | [65] 2.65 µM | [66] 13.2 µM | [67] 10.6 µM
1.44 µM: [44]

Nc1nc(-c2ccccc2)cc(-c2cc(Cl)ccc2O)n1
inactive: [1] > 100 µM | [2] 46.9 µM | [3] 50.9 µM | [68] > 100 µM | [5] 54 µM | [7] 29.1 µM | [8] 98.2 µM | [9] 39.7 µM | [10] 55 µM | [11] > 100 µM | [12] > 100 µM | [13] 35.7 µM | [14] > 100 µM | [15] > 100 µM | [16] 45.7 µM | [19] 34.2 µM | [20] > 100 µM | [22] 63.8 µM | [23] 64.3 µM | [24] 42.7 µM | [26] > 100 µM | [27] > 100 µM | [28] > 100 µM | [30] 53.8 µM | [31] 39.9 µM | [32] > 100 µM | [33] > 100 µM | [34] 83.6 µM | [35] 54.2 µM | [36] 48.3 µM | [37] > 100 µM | [38] > 100 µM | [41] > 100 µM | [42] 43.9 µM | [46] > 100 µM | [47] > 100 µM | [48] 25.6 µM | [49] > 100 µM | [50] 49.3 µM | [51] 74.5 µM | [52] 25.9 µM | [53] 49.4 µM | [54] > 100 µM | [55] 32.9 µM | [56] 44.7 µM | [57] 28.7 µM | [58] > 100 µM | [59] > 100 µM | [60] > 100 µM | [61] 35.6 µM | [62] 31.6 µM | [64] > 100 µM | [66] > 100 µM | [67] 55.6 µM
> 100 µM: [44]
